Experimental findings from patent US6391305B1, “Conjugates useful in the treatment of prostate cancer” (priority 1999, dated 2002) are described below.

pEC50: −log10 of the molar value. Non-standard residues stand in square brackets, D forms with d. Residues, ends and D or L forms follow the SMILES beside them. *: point of attachment. Doxorubicin(3'-N) = COc1cccc2c1C(=O)c1c(O)c3c(c(O)c1C2=O)C[C@@](O)(C(=O)CO)C[C@@H]3O[C@H]1C[C@H](N*)[C@H](O)[C@H](C)O1; Decanoyl(3,6,9-trioxa) = COCCOCCOCC(=O)*; Glyceroyl(2R) = O=C([C@H](O)CO)*; hArg = N=C(N)NCCCC[C@H](N)C(=O)O; Chg = N[C@H](C(=O)O)C1CCCCC1; hSer = N[C@@H](CCO)C(=O)O; X3 = O=C(C(O)CO)*

The target in data set [1] is T1, enzymatically active free PSA (Homo sapiens, UniProt P07288).
T1 construct: required for 50% cleavage of the noted oligopeptides with enzymatically active free PSA
T1 sequence (P07288 25-261): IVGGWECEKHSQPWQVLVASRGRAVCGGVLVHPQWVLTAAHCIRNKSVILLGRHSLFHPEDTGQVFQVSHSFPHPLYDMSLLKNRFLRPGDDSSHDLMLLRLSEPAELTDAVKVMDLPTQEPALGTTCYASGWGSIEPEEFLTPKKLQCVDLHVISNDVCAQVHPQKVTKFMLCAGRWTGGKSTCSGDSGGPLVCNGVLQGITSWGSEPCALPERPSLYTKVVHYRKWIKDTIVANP
Description: Recognition (cleavage) of oligopeptide-doxorubicin conjugates by free PSA, HPLC. It is filed as biochemical. The conditions noted are these: DOX conjugate; for Time to 50% Substrate Cleavage by York PSA: PSA digestion buffer pH7.4, 140 mM NaCl, molar ratio to PSA 100 to 1. Here is the method:
If no salt is indicated for the conjugate, the free conjugate was tested.

The nature of data set [2]: Solubility remarks (INSOLUBLE, PS, PP) printed beside the assay results of Tables 2-4. It is filed as physicochemical. The conditions noted are these: DOX conjugate in cytotoxicity test.
For data set [3], the system named is LNCap prostate tumor cells. The data set can be described thus: In vitro cytotoxicity, Alamar Blue assay, LNCaP. It counts as cell-based. The conditions noted are these: 72 HRS, read-out: LNCaP Cell Kill in 72 HRS, {48 HRS} EC 50. (In general: Alamar Blue is a resazurin reagent that responds to reducing activity.)
In data set [4] the test system is DuPRO cells. Description: In vitro cytotoxicity, Alamar Blue assay, DuPRO. The conditions noted are these: value in parentheses beside the LNCaP value, read-out: DuPRO cell kill EC 50. It is filed as cell-based. Here is the method:
The cytotoxicities of the cleaveable oligopeptide-doxorubicin conjugates, prepared as described in Examples 3-6, against a line of cells which is known to be killed by unmodified doxorubicin was assessed with an Alamar Blue assay. Specifically, cell cultures of LNCap prostate tumor cells or DuPRO cells in 96 well plates was diluted with medium containing various concentrations of a given conjugate (final plate well volume of 200 μl ). The cells were incubated for 3 days at 37° C., 20 μl of Alamar Blue is added to the assay well. The cells were further incubated and the assay plates were read on a EL-310 ELISA reader at the dual wavelengths of 570 and 600 nm at 4 and 7 hours after addition of Alamar Blue. Relative percentage viability at the various concentration of conjugate tested was then calculated versus control (no conjugate) cultures. If no salt is indicated, the free conjugate was tested.

For the compound `COCCOCCOCC(=O)N[C@@H](CCCCNC(=N)N)C(=O)N[C@H](C(=O)N[C@@H](CCC(N)=O)C(=O)N[C@@H](CO)C(=O)N[C@@H](CC(C)C)C(=O)N[C@H]1C[C@H](O[C@H]2C[C@](O)(C(=O)CO)Cc3c(O)c4c(c(O)c32)C(=O)c2c(OC)cccc2C4=O)O[C@@H](C)[C@H]1O)C1CCCCC1` [PEG(2)-HomoRChgQ-SL-DOX (3′), PEG(2)-hArgChgGln-SerLeu-DOX (3′)] ({Decanoyl(3,6,9-trioxa)}-[hArg][Chg]QSL-{Doxorubicin(3'-N)}), the “Substrate cleavage by York PSA at 4 HOUR” value in data set [1] (4 hours) is reported as 12%. Further, in data set [2], the “Solubility remark in Table 4” value was “INSOLUBLE”.
With `COc1cccc2c1C(=O)c1c(O)c3c(c(O)c1C2=O)C[C@@](O)(C(=O)CO)C[C@@H]3O[C@H]1C[C@H](NC(=O)[C@H](CC(C)C)NC(=O)[C@H](CO)NC(=O)[C@H](CCC(N)=O)NC(=O)[C@@H](NC(=O)[C@H](CO)NC(=O)[C@H](CO)NC(=O)[C@H](O)CO)C2CCCCC2)[C@H](O)[C@H](C)O1` [(d)(2,3-dihydroxypropionyl)SerSerChgGln-SerLeu-DOX (3′)] ({Glyceroyl(2R)}-SS[Chg]QSL-{Doxorubicin(3'-N)}), the pEC50 is 5.04 in data set [3] and less than 4.00 in data set [4]. Also, the “Time to 50% Substrate Cleavage by York PSA” value in data set [1] amounted to 120 min.
Take `COc1cccc2c1C(=O)c1c(O)c3c(c(O)c1C2=O)C[C@@](O)(C(=O)CO)C[C@@H]3O[C@H]1C[C@H](NC(=O)[C@H](CC(C)C)NC(=O)[C@H](CO)NC(=O)[C@H](CCC(N)=O)NC(=O)[C@@H](NC(=O)[C@H](CO)NC(=O)[C@H](CO)NC(=O)[C@H](CCO)NC(=O)C(O)CO)C2CCCCC2)[C@H](O)[C@H](C)O1` (some centres unmarked) [(2,3-dihydroxypropionyl)-hSerSerSerChgGln-SerLeu-DOX (3′)] (X3-[hSer]SS[Chg]QSL-{Doxorubicin(3'-N)}): the pEC50 in data set [3] was 5.29; in data set [4], 4.05. In addition, the “Time to 50% Substrate Cleavage by York PSA” value in data set [1] was found to be 35 min.
